Experimental data: patent publication US8399676B2, “Piperidine derivatives” (Hoffman-La Roche Inc., priority 2009, dated 2013)
Where a name gives a salt, the structure may show the parent alone.

molecular target: T1, human HSL (Homo sapiens, UniProt Q05469); assay: Human Hormone-Sensitive Lipase (HSL) enzyme inhibition assay (colorimetric, DMPT substrate); assay type: biochemical; settings: read-out: HSL hum IC50
T1 construct: generate a full length human HSL ORF with a 3′-His6 tag; His6 (C); made in house; host or cells: High 5 insect cells (baculovirus, pFast-BAC)
T1 sequence (Q05469 1-1076): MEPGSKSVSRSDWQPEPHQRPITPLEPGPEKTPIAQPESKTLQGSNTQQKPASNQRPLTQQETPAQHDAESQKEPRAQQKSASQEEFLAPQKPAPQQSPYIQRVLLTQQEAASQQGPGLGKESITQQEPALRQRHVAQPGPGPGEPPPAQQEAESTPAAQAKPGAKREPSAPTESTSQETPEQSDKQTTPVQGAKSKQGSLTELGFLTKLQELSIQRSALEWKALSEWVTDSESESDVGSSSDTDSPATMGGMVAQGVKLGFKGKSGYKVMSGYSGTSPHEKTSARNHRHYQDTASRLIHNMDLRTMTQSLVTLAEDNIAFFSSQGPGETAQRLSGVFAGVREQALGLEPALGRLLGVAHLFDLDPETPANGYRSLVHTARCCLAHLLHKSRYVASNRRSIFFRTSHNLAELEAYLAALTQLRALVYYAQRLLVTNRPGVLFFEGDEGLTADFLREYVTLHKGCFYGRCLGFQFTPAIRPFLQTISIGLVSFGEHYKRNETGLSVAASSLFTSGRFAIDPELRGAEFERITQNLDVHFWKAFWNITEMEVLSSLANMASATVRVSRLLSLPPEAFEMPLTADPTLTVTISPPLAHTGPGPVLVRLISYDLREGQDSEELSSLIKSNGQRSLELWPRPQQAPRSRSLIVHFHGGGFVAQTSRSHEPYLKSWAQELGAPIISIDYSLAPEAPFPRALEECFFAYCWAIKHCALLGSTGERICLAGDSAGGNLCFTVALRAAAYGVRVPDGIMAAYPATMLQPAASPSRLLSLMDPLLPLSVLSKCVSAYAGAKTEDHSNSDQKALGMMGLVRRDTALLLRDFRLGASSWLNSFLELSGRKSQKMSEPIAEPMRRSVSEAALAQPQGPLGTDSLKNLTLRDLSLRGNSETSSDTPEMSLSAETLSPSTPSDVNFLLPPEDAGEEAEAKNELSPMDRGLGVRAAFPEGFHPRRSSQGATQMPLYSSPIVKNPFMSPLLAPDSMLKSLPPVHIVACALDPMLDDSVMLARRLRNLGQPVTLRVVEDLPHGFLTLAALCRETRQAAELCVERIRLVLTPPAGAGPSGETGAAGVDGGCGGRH
In short: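 Full-length human HSL carrying a C-terminal His6 tag was expressed in High 5 insect cells via baculovirus and purified on Ni-NTA. Compounds from 3-fold DMSO series were mixed with 1.5 mM DMPT substrate suspension in 100 mM MOPS pH 7.2 with 0.2 mg/ml fatty acid-free BSA, then enzyme (15 ug/ml) was added for 20 minutes at 37 °C. Released thiol was detected with DTNB plus SDS/Triton X-100 (15 minutes, room temperature) at 405 nm.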

In order of rising IC50:
1. NC1(C(=O)Nc2ccc(OCC(F)(F)F)cc2)CCN(S(=O)(=O)c2ccccc2Cl)CC1 [Example 105, 4-Amino-1-(2-chloro-benzenesulfonyl)-piperidine-4-carboxylic acid [4-(2,2,2-trifluoro-ethoxy)-phenyl]-amide]  110 nM
2. CCc1ccc(NC(=O)C2(N)CCN(S(=O)(=O)c3ccccc3C(F)(F)F)CC2)cc1 [Example 145, 4-Amino-1-(2-trifluoromethyl-benzenesulfonyl)-piperidine-4-carboxylic acid (4-ethyl-phenyl)-amide]  130 nM
3. O=C(Nc1ccc(OC(F)(F)F)cc1)C1(O)CCN(S(=O)(=O)c2ccccc2C(F)(F)F)CC1 [Example 64, 4-Hydroxy-1-(2-trifluoromethyl-benzenesulfonyl)-piperidine-4-carboxylic acid (4-trifluoromethoxy-phenyl)-amide]  150 nM
4. COc1ccc(S(=O)(=O)N2CCC(O)(C(=O)Nc3ccc(C(C)(C)C)cc3)CC2)cc1 [Example 19, 4-Hydroxy-1-(4-methoxy-benzenesulfonyl)-piperidine-4-carboxylic acid (4-tert-butyl-phenyl)-amide]  170 nM
5. O=C(Nc1ccc(OC(F)(F)F)cc1)C1(O)CCN(Cc2ccccc2Cl)CC1 [Example 63, 1-(2-Chloro-benzyl)-4-hydroxy-piperidine-4-carboxylic acid (4-trifluoromethoxy-phenyl)-amide]  180 nM
6. CC(C)c1ccc(NC(=O)C2(N)CCN(S(=O)(=O)c3ccccc3Cl)CC2)cn1 [Example 101, 4-Amino-1-(2-chloro-benzenesulfonyl)-piperidine-4-carboxylic acid (6-isopropyl-pyridin-3-yl)-amide]  190 nM
7. CC(C)c1ccc(NC(=O)C2(N)CCN(C(=O)c3ccccc3OC(F)(F)F)CC2)cc1 [Example 123, 4-Amino-1-(2-trifluoromethoxy-benzoyl)-piperidine-4-carboxylic acid (4-isopropyl-phenyl)-amide]  200 nM
8. Cc1ccc(S(=O)(=O)N2CCC(O)(C(=O)Nc3ccc(C(C)(C)C)cc3)CC2)cc1 [Example 16, 4-Hydroxy-1-(toluene-4-sulfonyl)-piperidine-4-carboxylic acid (4-tert-butyl-phenyl)-amide]  200 nM
9. CC(C)c1ccc(CN2CCC(N)(C(=O)Nc3ccc(C(C)C)cc3)CC2)cc1 [Example 115, 4-Amino-1-(4-isopropyl-benzyl)-piperidine-4-carboxylic acid (4-isopropyl-phenyl)-amide; hydrochloride]  230 nM
10. CC(C)(C)c1ccc(NC(=O)C2(O)CCN(Cc3ccccc3C(F)(F)F)CC2)cc1 [Example 47, 4-Hydroxy-1-(2-trifluoromethyl-benzyl)-piperidine-4-carboxylic acid (4-tert-butyl-phenyl)-amide]  230 nM
11. CC(C)c1ccc(NC(=O)C2(N)CCN(C(=O)c3ccc(C(F)(F)F)cc3)CC2)cc1 [Example 126, 4-Amino-1-(4-trifluoromethyl-benzoyl)-piperidine-4-carboxylic acid (4-isopropyl-phenyl)-amide]  250 nM
12. CC(C)c1ccc(NC(=O)C2(N)CCN(Cc3ccc(C(F)(F)F)cc3)CC2)cc1 [Example 112, 4-Amino-1-(4-trifluoromethyl-benzyl)-piperidine-4-carboxylic acid (4-isopropyl-phenyl)-amide; hydrochloride]  300 nM
13. CC(C)c1ccc(NC(=O)C2(N)CCN(C(=O)OCc3ccccc3)CC2)cc1 [Example 82, 4-Amino-4-(4-isopropyl-phenylcarbamoyl)-piperidine-1-carboxylic acid benzyl ester; hydrochloride]  320 nM
14. CC(C)c1ccc(NC(=O)C2(N)CCN(C(=O)c3ccc(Cl)cc3)CC2)cc1 [Example 125, 4-Amino-1-(4-chloro-benzoyl)-piperidine-4-carboxylic acid (4-isopropyl-phenyl)-amide]  360 nM
15. CCCCS(=O)(=O)N1CCC(N)(C(=O)Nc2ccc(CC)cc2)CC1 [Example 143, 4-Amino-1-(butane-1-sulfonyl)-piperidine-4-carboxylic acid (4-ethyl-phenyl)-amide]  530 nM
16. O=C(c1ccc(F)cc1)N1CCC(O)(C(=O)Nc2ccc(OC(F)(F)F)cc2)CC1 [Example 11, 1-(4-Fluoro-benzoyl)-4-hydroxy-piperidine-4-carboxylic acid (4-trifluoromethoxy-phenyl)-amide]  550 nM
17. CC(C)(C)c1ccc(NC(=O)C2(O)CCN(C(=O)c3ccc(F)cc3C(F)(F)F)CC2)cc1 [Example 42, 1-(4-Fluoro-2-trifluoromethyl-benzoyl)-4-hydroxy-piperidine-4-carboxylic acid (4-tert-butyl-phenyl)-amide]  600 nM
18. CC(C)Oc1ccc(NC(=O)C2(O)CCN(Cc3ccc(OC(F)(F)F)cc3)CC2)cc1 [Example 14, 4-Hydroxy-1-(4-trifluoromethoxy-benzyl)-piperidine-4-carboxylic acid (4-isopropoxy-phenyl)-amide]  600 nM
19. NC1(C(=O)Nc2ccc(F)cc2)CCN(S(=O)(=O)c2ccccc2Cl)CC1 [Example 94, 4-Amino-1-(2-chloro-benzenesulfonyl)-piperidine-4-carboxylic acid (4-fluoro-phenyl)-amide]  780 nM
20. COc1ccc(Cl)cc1NC(=O)N1CCC(O)(C(=O)Nc2ccc(C(C)(C)C)cc2)CC1 [Example 50, 4-Hydroxy-piperidine-1,4-dicarboxylic acid 4-[(4-tert-butyl-phenyl)-amide] 1-[(5-chloro-2-methoxy-phenyl)-amide]]  840 nM
